Laboratory results as given in ChEMBL document CHEMBL1201862, “PubChem BioAssay data set” (2004).
Active and inactive are the calls of the source.

Key:
[1] = target: T1, Tyrosine-protein phosphatase non-receptor type 22 (Homo sapiens, UniProt Q9Y2R2); type: functional
T1 sequence (Q9Y2R2 whole entry): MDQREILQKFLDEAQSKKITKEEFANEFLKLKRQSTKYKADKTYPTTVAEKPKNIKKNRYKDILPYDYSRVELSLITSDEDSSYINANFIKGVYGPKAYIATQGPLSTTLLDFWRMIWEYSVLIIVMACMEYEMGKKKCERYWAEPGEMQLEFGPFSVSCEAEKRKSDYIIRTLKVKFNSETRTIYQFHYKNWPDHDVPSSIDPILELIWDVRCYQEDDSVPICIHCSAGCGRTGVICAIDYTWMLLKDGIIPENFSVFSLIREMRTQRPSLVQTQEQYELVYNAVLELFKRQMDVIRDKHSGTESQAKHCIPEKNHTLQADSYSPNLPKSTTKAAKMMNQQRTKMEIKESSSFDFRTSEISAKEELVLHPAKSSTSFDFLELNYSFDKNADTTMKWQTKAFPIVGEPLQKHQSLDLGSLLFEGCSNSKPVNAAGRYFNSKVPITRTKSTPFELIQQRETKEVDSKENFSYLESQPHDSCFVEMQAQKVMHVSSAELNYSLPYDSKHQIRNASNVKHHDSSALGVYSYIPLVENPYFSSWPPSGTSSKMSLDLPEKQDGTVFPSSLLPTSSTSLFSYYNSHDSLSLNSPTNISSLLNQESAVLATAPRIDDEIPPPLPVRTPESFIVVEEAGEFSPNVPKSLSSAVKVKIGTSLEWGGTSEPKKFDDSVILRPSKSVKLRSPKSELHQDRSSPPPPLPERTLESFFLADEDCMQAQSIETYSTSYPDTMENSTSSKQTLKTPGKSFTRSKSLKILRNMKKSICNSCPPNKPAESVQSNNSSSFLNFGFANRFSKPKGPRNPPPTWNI

[2] = target: T1, Tyrosine-protein phosphatase non-receptor type 22; type: functional; remark: listed apart in the source
Large T antigen = Large T antigen (Simian virus 40, UniProt P03070); type: functional, Betapolyomavirus macacae;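 also: Confirmatory-stage PubChem screen for compounds that inhibit SV40 T antigen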
[3] = target: T2, Tyrosine-protein phosphatase non-receptor type 7 (Homo sapiens, UniProt P35236); type: functional
T2 sequence (P35236 whole entry): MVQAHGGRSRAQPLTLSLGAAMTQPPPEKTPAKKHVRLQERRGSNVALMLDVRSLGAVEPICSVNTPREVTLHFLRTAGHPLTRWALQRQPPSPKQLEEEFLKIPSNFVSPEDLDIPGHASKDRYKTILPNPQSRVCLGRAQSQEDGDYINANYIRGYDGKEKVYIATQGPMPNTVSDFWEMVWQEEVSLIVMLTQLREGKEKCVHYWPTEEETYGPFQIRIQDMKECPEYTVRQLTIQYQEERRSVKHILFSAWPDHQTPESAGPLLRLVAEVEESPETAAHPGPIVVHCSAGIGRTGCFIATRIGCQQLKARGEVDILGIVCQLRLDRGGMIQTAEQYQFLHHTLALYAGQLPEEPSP

HEK293 [4] = test: cells; conditions: Homo sapiens
HEK293 [5] = test: cells; type: functional, cell-based; conditions: Homo sapiens
HEK293 [6] = test: NOD2 signaling inhibitors in MDP-stimulated cells, cell-based, uHTS, luminescence (AID 2001); type: functional; conditions: Homo sapiens
[7] = target: T3, Nucleotide-binding oligomerization domain-containing protein 2 (Homo sapiens, UniProt Q9HC29); test: inhibition of NOD2-driven NF-kB reporter – cell-based, luminescence, uHTS, HEK293 (AID 1566); type: functional
HEK293 [8] = test: cells; type: functional, cell-based; conditions: Homo sapiens; remark: listed apart in the source
HEK293 [9] = test: cells; type: functional, cell-based; conditions: Homo sapiens; remark: listed apart in the source
Tumor necrosis factor = Tumor necrosis factor (Homo sapiens, UniProt P01375); test: analog potency on TNFa NF-kB signaling – cell-based, revised, SAR follow-up (AID 2337); type: functional
HEK293 [10] = test: inhibition of NOD1-driven NF-kB reporter – cell-based, luminescence, uHTS, primary screen (AID 1578); type: functional; conditions: Homo sapiens
[11] = target: T3, Nucleotide-binding oligomerization domain-containing protein 2; test: PubChem AID 2334; type: functional
[12] = target: Nucleotide-binding oligomerization domain-containing protein 1 (Homo sapiens, UniProt Q9Y239); test: blockers of NOD1 pathway activity – revised, SAR follow-up (AID 2333); type: functional
[13] = target: T4, E3 ubiquitin-protein ligase XIAP (Homo sapiens, UniProt P98170); test: small molecules displacing peptide from XIAP – biochemical, IAP family, fluorescence polarization (AID 1018); type: functional
Streptococcus = test: GAS UMAA2166 growth inhibition – luminescence, BacTiterGlo, counter-screen for streptokinase expression inhibitor project, dose response (AID 1915); type: functional, organism-based;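 also: potency for reduction of bacterial viability or growth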
[14] = system: Streptococcus sp. 'group A'; test: Streptococcus pyogenes SK(-)GAS viability under kanamycin – luminescence, BacTiterGlo, confirmation, counter-screen for streptokinase expression inhibitor project, dose response (AID 1900); type: functional, organism-based
[15] = target: T4, E3 ubiquitin-protein ligase XIAP; test: Counter Screen using XIAP-Bir3 for Chemical Antagonists of Bir1/2 domains of IAP-family anti-apoptotic proteins. [Related pubchem assays (depositor defined):AID1018, AID1449, AID1514, AID1638, AID1749, AID1750, AID488957, AID488963]
Streptokinase A = target: T5, Streptokinase A (Streptococcus pyogenes serotype M1, UniProt P10520); test: viability-normalized secreted streptokinase activity reduction – plasminogen activation absorbance, OD405, dose response (AID 1914); type: functional, Streptococcus pyogenes M1 GAS;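 also: secreted streptokinase activity via plasminogen activation per viability signal from cell pellet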
T5 sequence (P10520 whole entry): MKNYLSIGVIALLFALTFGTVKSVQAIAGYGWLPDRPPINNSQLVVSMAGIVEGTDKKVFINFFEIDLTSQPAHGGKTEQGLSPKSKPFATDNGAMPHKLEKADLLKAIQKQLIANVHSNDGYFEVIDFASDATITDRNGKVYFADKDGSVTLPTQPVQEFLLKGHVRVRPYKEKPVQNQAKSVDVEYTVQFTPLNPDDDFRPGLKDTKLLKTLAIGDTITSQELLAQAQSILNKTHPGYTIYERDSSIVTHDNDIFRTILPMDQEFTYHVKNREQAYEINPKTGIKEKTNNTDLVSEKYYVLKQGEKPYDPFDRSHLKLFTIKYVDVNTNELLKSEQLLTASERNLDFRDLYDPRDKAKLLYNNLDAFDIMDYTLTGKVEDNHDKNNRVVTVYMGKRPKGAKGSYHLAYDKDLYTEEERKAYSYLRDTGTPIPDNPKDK

[16] = target: T6, Carboxy-terminal domain RNA polymerase II polypeptide A small phosphatase 1 (Homo sapiens, UniProt Q9GZU7); test: CTDSP1 inhibitors, concentration-response, biochemical, absorbance readout, ultra-high-throughput screen actives (AID 540297); type: functional
T6 sequence (Q9GZU7 whole entry): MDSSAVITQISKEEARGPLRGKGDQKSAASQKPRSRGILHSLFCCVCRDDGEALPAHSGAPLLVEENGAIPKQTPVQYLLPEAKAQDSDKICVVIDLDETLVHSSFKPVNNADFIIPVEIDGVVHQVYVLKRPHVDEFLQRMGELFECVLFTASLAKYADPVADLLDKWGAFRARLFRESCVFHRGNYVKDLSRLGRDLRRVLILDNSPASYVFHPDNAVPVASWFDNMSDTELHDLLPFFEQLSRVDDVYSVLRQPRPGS

[17] = target: T7, Dual specificity protein phosphatase 3 (Homo sapiens, UniProt P51452); test: VHR1 phosphatase inhibitors, biochemical (AID 1878)
Cysteine protease ATG4B = target: T8, Cysteine protease ATG4B (Homo sapiens, UniProt Q9Y4P1); type: functional;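 also: Fluorescence-based dose-response confirmation assay measuring inhibition of ATG4B activity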
T8 sequence (Q9Y4P1 whole entry): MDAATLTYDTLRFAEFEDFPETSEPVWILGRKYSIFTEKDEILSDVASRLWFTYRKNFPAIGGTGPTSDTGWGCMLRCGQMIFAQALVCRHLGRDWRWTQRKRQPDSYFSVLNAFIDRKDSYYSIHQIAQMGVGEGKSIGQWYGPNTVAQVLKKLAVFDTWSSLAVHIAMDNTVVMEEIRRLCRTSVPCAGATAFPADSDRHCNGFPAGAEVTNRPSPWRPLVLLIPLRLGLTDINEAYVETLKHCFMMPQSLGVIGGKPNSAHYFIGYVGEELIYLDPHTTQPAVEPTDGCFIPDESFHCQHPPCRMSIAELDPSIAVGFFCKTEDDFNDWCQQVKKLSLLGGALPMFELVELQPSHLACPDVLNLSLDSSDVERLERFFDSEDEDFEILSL

[18] = target: T9, Dual specificity protein phosphatase 6 (Rattus norvegicus, UniProt Q64346); test: inhibition of rat DUSP6 enzyme activity – biochemical, in vitro, primary screen (AID 425)
T9 sequence (Q64346 whole entry): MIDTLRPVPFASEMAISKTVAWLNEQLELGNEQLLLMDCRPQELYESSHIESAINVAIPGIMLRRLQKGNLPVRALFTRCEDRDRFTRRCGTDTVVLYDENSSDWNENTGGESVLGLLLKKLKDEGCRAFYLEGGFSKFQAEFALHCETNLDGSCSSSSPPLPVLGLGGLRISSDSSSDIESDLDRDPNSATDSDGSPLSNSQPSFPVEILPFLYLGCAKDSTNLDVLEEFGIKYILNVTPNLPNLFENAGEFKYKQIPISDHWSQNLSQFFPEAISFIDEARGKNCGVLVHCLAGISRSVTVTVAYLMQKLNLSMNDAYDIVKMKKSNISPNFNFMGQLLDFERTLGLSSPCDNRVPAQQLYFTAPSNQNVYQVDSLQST

[19] = target: T7, Dual specificity protein phosphatase 3; test: VHR1 phosphatase inhibitors, primary screen, biochemical, absorbance, uHTS (AID 1654)
Phospholipase A2 = Phospholipase A2 (Homo sapiens, UniProt P04054); type: functional;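 also: confirmatory dose-response counterscreen on phospholipase A2, testing hits that came from an ultra-high-throughput screen for ATG4B inhibitors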
Chain of Phospholipase A2 (P04054 whole entry): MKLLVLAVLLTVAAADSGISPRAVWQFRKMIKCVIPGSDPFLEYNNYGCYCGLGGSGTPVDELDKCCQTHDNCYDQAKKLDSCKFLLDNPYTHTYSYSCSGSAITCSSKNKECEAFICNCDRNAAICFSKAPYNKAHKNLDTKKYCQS

T3 sequence (Q9HC29 whole entry, the tested form may be a part): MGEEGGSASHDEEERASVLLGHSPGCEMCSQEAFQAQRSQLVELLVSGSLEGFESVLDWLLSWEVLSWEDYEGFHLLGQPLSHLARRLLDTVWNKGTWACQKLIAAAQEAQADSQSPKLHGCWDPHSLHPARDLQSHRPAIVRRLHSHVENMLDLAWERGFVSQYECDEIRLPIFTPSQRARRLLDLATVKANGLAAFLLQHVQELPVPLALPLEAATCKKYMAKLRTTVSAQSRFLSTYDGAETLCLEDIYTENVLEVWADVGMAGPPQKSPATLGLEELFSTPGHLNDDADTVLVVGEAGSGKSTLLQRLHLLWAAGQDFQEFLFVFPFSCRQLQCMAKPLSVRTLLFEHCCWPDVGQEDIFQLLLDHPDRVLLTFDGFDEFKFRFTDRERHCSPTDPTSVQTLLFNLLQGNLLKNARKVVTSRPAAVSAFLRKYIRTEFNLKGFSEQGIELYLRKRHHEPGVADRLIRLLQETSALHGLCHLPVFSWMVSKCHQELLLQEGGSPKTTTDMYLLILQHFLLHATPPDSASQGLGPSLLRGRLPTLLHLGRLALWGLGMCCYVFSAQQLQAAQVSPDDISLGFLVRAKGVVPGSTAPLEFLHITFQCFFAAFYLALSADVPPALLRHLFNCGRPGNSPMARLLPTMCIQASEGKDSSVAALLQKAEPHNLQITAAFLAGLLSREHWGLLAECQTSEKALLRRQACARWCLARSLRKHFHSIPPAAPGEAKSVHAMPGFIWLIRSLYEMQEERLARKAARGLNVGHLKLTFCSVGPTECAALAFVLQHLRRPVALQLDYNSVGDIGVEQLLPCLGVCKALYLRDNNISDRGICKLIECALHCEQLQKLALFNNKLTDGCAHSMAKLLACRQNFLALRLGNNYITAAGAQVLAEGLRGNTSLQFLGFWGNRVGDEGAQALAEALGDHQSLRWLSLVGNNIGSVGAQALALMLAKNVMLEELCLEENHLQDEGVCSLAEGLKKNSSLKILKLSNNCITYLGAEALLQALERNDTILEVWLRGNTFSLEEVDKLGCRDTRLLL
Chain of Tumor necrosis factor (P01375 whole entry): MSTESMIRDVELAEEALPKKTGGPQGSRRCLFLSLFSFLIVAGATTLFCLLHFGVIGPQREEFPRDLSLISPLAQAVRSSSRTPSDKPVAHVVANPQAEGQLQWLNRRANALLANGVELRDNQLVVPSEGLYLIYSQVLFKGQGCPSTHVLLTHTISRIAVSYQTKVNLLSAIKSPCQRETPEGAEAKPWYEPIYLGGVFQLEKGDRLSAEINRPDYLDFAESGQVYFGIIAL
Chain of Nucleotide-binding oligomerization domain-containing protein 1 (Q9Y239 whole entry, the tested form may be a part): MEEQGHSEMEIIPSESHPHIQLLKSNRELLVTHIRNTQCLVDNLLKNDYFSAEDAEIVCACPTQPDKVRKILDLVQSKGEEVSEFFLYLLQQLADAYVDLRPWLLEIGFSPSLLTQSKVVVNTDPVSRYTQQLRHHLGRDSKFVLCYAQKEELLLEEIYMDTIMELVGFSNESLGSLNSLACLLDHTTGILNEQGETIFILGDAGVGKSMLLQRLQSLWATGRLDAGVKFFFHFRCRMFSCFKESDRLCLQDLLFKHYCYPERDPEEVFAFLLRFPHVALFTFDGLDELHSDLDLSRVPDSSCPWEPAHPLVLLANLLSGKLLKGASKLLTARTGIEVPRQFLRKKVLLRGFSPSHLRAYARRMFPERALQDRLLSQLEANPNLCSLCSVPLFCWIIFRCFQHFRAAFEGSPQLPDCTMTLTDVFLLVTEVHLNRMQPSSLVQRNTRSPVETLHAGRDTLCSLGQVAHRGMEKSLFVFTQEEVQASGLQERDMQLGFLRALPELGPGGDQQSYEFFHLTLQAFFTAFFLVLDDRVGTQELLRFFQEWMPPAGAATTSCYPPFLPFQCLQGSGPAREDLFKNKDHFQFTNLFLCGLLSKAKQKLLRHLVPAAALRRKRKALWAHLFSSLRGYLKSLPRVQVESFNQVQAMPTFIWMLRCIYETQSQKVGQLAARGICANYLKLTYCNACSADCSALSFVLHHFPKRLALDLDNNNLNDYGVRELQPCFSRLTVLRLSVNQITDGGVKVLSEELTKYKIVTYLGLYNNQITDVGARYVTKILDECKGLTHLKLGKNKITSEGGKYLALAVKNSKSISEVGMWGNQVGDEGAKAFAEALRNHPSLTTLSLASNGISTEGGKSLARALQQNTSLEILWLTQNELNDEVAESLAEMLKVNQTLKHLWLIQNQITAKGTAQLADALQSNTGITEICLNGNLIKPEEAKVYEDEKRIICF
T4 sequence (P98170 whole entry): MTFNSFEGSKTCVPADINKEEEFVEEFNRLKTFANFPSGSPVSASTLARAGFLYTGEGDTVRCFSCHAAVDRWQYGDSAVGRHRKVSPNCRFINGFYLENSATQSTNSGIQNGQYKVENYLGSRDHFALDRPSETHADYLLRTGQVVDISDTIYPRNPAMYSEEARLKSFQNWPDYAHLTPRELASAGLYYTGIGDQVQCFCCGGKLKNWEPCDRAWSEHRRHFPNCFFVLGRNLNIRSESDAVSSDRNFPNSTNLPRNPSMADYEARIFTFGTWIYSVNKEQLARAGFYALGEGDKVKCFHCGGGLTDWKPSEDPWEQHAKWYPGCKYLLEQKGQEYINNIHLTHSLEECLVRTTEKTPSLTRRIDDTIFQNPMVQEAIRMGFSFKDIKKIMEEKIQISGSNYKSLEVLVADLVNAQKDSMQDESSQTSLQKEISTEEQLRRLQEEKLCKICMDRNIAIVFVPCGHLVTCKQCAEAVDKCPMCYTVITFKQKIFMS
T7 sequence (P51452 whole entry): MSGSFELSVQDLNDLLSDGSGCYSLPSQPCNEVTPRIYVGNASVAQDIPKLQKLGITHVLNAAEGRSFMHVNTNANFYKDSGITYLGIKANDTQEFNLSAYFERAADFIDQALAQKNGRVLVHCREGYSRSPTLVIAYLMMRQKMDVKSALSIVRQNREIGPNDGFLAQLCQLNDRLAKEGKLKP
Chain of Large T antigen (P03070 whole entry): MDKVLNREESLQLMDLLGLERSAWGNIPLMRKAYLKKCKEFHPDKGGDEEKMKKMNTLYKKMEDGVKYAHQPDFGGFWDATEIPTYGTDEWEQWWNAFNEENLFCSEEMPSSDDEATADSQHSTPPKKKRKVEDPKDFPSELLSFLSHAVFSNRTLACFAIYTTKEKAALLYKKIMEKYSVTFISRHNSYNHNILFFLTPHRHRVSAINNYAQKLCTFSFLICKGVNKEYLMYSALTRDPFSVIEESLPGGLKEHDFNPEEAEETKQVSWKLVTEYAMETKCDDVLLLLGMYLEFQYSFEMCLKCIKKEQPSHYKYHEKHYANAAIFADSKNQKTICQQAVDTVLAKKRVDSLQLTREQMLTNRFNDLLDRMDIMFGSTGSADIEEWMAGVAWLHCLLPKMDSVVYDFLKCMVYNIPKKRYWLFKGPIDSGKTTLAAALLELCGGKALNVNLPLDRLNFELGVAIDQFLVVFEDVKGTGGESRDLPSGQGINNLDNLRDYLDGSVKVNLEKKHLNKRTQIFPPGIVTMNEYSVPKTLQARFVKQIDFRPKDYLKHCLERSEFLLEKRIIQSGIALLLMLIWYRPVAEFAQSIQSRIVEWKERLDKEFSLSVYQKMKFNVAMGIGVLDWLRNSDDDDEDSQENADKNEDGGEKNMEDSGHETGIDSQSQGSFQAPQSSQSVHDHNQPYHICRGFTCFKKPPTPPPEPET

## C=CCc1cccc2cc(C(=O)Nc3ccc(S(=O)(=O)Nc4nnc(CC)s4)cc3)c(=O)oc12
[1]
  IC50: 8.58 µM (active)
[2]
  IC50: 9.43 µM (active)
Large T antigen
  IC50: 83.2 µM (active)
[3]
  IC50: 6.18 µM (active)

## O=C(c1ccc(S(=O)(=O)N2CCCCC2)cc1)N1CCN(CCN2C(=O)c3cccc4cccc(c34)C2=O)CC1
HEK293 [4]
  IC50: > 20 µM (inactive)
HEK293 [5]
  IC50: > 20 µM (inactive)
HEK293 [6]
  IC50: 8.84 µM (active)
[7]
  EC50: > 20 µM (inactive)
HEK293 [8]
  IC50: 6.57 µM (active)
HEK293 [9]
  IC50: > 20 µM (inactive)
Tumor necrosis factor
  IC50: 5.55 µM (active)
HEK293 [10]
  EC50: > 20 µM (inactive)
[11]
  IC50: 6.79 µM (active)
[12]
  IC50: 6.08 µM (active)

## Clc1cc(CSc2ccccc2)nc(-c2ccccc2)n1
[13]
  IC50: > 100 µM (not active)
Streptococcus
  EC50: > 150 µM (not active)
[14]
  EC50: > 150 µM (not active)
[15]
  IC50: > 100 µM (inactive)
Streptokinase A
  EC50: 33.8 µM (active)
[16]
  IC50: 14.1 µM (active)

## O=C(Nc1nc2ccccc2n1Cc1ccccc1Cl)c1ccc(Cl)cc1
HEK293 [4]
  IC50: > 20 µM (inactive)
Tumor necrosis factor
  IC50: > 20 µM (inactive)
[11]
  IC50: > 20 µM (inactive)
[12]
  IC50: > 20 µM (inactive)

## O=C(N/N=C/c1ccccc1Cl)c1nc(O)c2cc([N+](=O)[O-])ccc2n1
[17]
  IC50: > 158 µM (inactive)
Cysteine protease ATG4B
  IC50: 10.1 µM (active)
[16]
  IC50: 6.91 µM (active)
[18]
  IC50: > 158 µM (not active)
[19]
  IC50: 12.8 µM (active)
Phospholipase A2
  IC50: 30.2 µM (inactive)
